Measured values published in patent publication US20250041245A1, “ENDOXIFEN FOR TREATMENT OF CANCERS” (Atossa Therapeutics, Inc., priority 2021, published 2025).
Values joined by “and” are separate entries in the source; they are usually repeats but may differ in a detail not shown here. Identical values can stand only once. “Also recorded” adds a separate entry of the source.

Key:
Assay type in all cases: cell-based, human
Set-up in all cases: key to Personalization Category: Personalization categories range from High, Good, Moderate, Low, to None; Personalization categories range from High, Good, Moderate, Low, to None; Personalization categories range from High, Good, Moderate, Low, to None; Personalization categories range from High, Good, Moderate, Low, to None; Personalization categories range from High, Good, Moderate, Low, to None; key to Sensitivity Category: Sensitivity categories range from High, Good, Moderate, Low, to None; Sensitivity categories range from High, Good, Moderate, Low, to None; Sensitivity categories range from High, Good, Moderate, Low, to None; Sensitivity categories range from High, Good, Moderate, Low, to None; Sensitivity categories range from High, Good, Moderate, Low, to None; AUC: unit not given beside the values
[1] = tested on: patient-derived tumor organoids (PDTOs), gastric cancer; experiment: Endoxifen screen in PDTOs: gastric cancer; settings: each line one patient sample
Procedure: (§1) This example describes screening endoxifen in patient-derived tumor organoids. Endoxifen was tested as a single agent on tumor organoids derived from patients diagnosed with various cancer types using a personalized cancer treatment screening assay (PARIS© Test, SEngine Precision Medicine). The screen utilized patient-derived tumor organoids (PDTOs) along with high-throughput drug screening and machine learning-guided data analysis to quantify the efficacy of endoxifen against samples derived from individual patients diagnosed with various cancer types. PDTOs are self-organizing, three-dimensional organoid structures that recapitulate structural, functional, and genomic aspects of in vivo organs. The PDTOs were grown in culture from patient tumor biopsy samples.
(§2) Fresh patient biopsy samples received following surgery were cleaned and purified. Immune cells (e.g., lymphocytes, blood cells), cancer-associated fibroblasts, and other non-tumor cells were removed to establish pure PDTOs for endoxifen testing. The tumor organoids were grown and expanded by supplying organ- and patient-specific growth factors and nutrients. The PDTOs were treated with increasing concentrations of endoxifen ranging from about 30 nM to about 10 μM, and the drug response was measured using a luminescence readout. A lower luminescence was indicative of a stronger drug response.
(§3) The results were analyzed using a “SEngine Precision Medicine” (SPM) scoring system to assess the sensitivity and personalization of each tumor organoid to endoxifen. The SPM score correlates with clinical outcomes, such that a higher SPM score for a specific PDTO-drug combination predicts a more favorable clinical outcome following treatment of the corresponding patient with the tested drug.
(§4) This example describes testing endoxifen efficacy against 17 distinct cancer types in patient-derived tumor organoids (PDTOs). Screening of PDTOs was performed as described in EXAMPLE 1. For each PDTO sample, the drug response was measured using a luminescent readout over a range of endoxifen concentrations. The drug response was evaluated based on the area under the fitted dose response curve (AUC) and the SPM scoring system. AUC values were normalized for each PDTO. Briefly, data points at each drug concentration were first normalized to a negative control, then a dose response drug curve was approximated using a four-parameter logistic model fitted to the normalized data points. The area under the curve was calculated from the normalized curve. Normalization allowed for comparison of AUC values between patient samples. The SPM scores were based on machine learning models that incorporate values for how well the drug kill patient cells (sensitivity metric), the relative drug responses of a patient to all other patients in a sample database (personalization metric), and knowledge of clinical outcomes for patients that had been evaluated with the personalized cancer screening assay (PARIS® Test, SEngine Precision Medicine).
(§5) The SPM scoring system evaluated whether a PDTO was unresponsive or responsive to endoxifen and the degree of drug response for PDTOs that were responsive to endoxifen. The SPM scoring system generated metrics an SPM score, predictive of clinical outcome, overall drug response (response category), drug sensitivity (sensitivity category), and drug personalization (personalization category). SPM scores ranged from 1-15, corresponding to the following drug response categories: no response (SPM 1-8), low response (SPM 9), moderate response (SPM 10-11), good response (SPM 12-13), and exceptional response (SPM 14-15). […] Moderate to good drug responses (SPM 10-13) may indicate that a drug has clinical relevance, possibly in combination with other drugs. The sensitivity category was determined from the sensitivity metric and is a measure of overall cell death of a patient's cells in response to endoxifen at six concentrations. […]

[2] = tested on: patient-derived tumor organoids (PDTOs), cholangiocarcinoma; experiment: Endoxifen screen in PDTOs: cholangiocarcinoma; settings: each line one patient sample; for IC50: four-parameter logistic fit
Procedure: as §1, §2, §3, §4, §5

[3] = tested on: patient-derived tumor organoids (PDTOs), pancreatic ductal adenocarcinoma; experiment: Endoxifen screen in PDTOs: pancreatic ductal adenocarcinoma; settings: each line one patient sample; for IC50: four-parameter logistic fit
Procedure: as §1, §2, §3, §4, §5

[4] = normalized area under fitted dose response curve

## CC/C(=C(\c1ccc(O)cc1)c1ccc(OCCNC)cc1)c1ccccc1 [Endoxifen, 4-hydroxy-N-desmethyltamoxifen]
[1]
  Personalization Category: None and Low and High
  Response Category: None (no response (SPM 1-8)); also recorded: Low (low response (SPM 9)); also recorded: Good (good response (SPM 12-13)); also recorded: Moderate (moderate response (SPM 10-11))
  Sensitivity Category: Low and Moderate
[1]; four-parameter logistic fit
  IC50: 6.55 µM and 6.73 µM and 2.45 µM and 4.14 µM and 2.89 µM and 4.86 µM
[1]; [4]
  AUC: 0.9503 and 0.8641 and 0.7529 and 0.8116 and 0.6723 and 0.8547
[1]; score range 1-15
  SPM Score: 5 and 9 and 12 and 11 and 13 and 10
[2]; Homo sapiens
  IC50: 8.7 µM
[2]
  Personalization Category: None and Low
  Response Category: None (no response (SPM 1-8)); also recorded: Low (low response (SPM 9))
  Sensitivity Category: None and Low
  IC50: 9.19 µM
[2]; [4]
  AUC: 0.9497 and 0.9011 and 0.9669
[2]; score range 1-15
  SPM Score: 1 and 9 and 3
[3]; Homo sapiens
  IC50: 4.47 µM
[3]
  Personalization Category: Good and Low and None
  Response Category: Moderate (moderate response (SPM 10-11)); also recorded: Low (low response (SPM 9)); also recorded: None (no response (SPM 1-8))
  Sensitivity Category: Low and None
  IC50: 5.83 µM
[3]; [4]
  AUC: 0.8283 and 0.8839 and 1.1358
[3]; score range 1-15
  SPM Score: 11 and 9 and 1
